Each structure is given as a SMILES string.

Results on two compounds are retold here after US20200261419A1, “COMBINATIONS FOR THE TREATMENT OF KIDNEY STONES” (Wake Forest University Health Sciences, priority 2015, published 2020).

Experiment [1] deals with T1, recombinant, human liver GO (the HAO1 gene product) (Homo sapiens, UniProt Q9UJM8).
T1 sequence (Q9UJM8 1-370): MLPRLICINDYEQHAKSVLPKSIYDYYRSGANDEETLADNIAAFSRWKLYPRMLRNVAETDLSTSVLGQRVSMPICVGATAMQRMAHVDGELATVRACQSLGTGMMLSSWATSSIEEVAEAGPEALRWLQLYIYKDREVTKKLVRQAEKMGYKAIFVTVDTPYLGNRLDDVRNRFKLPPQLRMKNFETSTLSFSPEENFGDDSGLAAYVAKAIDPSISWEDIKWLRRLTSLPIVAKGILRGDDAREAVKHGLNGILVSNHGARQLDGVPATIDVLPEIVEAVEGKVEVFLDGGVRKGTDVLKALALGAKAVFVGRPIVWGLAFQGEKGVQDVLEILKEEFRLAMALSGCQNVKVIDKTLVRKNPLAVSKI
In words: GO inhibition, coupled DCIP assay. It is filed as biochemical. The note with it: 37° C., 100 mM potassium phosphate pH 7.5, 75 μM DCIP, 3 mM glycolate; read-out: apparent Ki. Here is the method:
Testing of GO inhibitors. The inhibition of recombinant, human liver GO (the HAO1 gene product) is readily determined by a coupled assay that contains 2,6-dichloroindophenol (DCIP) (Murray et al. Biochemistry 47, 2439-2449, 2008). Briefly, GO is pre-incubated at 37° C. with or without inhibitor in 100 mM potassium phosphate pH 7.5 (0.1% DMSO final) for […]. An aliquot of pre-warmed DCIP and glycolate is added to start the reaction (final concentration 75 μM DCIP, 3 mM glycolate). The reaction rate is determined by monitoring the decrease at 600 nm (extinction coefficient of 21 mM^−1 cm^−1).

Another experiment deals with T2, human HYPDH (Homo sapiens, UniProt Q9UF12).
T2 construct: Only the constructs containing the residues 147-515 and 156-515 were >96% loaded with FAD+ and active; made in house; host or cells: Escherichia coli
T2 sequence (Q9UF12 71-439 limits assumed): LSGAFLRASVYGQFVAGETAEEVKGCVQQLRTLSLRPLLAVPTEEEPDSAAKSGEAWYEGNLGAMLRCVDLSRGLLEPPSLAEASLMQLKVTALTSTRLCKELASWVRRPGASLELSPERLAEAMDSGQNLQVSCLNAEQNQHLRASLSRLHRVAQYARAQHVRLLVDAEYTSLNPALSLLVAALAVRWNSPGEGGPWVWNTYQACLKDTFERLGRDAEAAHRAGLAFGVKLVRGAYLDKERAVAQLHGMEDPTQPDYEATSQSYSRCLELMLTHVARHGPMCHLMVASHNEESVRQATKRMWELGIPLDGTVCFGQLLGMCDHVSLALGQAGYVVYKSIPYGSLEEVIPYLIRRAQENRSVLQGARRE
The experiment is described as follows: Anaerobic titration of the FAD spectrum of HYPDH. It is filed as binding.

Turning to `CCCCCCCCCCCCSc1snnc1C(=O)O` [CDST], in experiment [1], the Ki is about 0.015 µM.
Regarding `O=C(O)[C@@H]1C[C@@H](O)CN1` [Hyp, Hydroxyproline], the affinity on human HYPDH, expressed as Kd, was 125 µM.

Broadly, the Kd is the equilibrium constant for the complex coming apart. Read a low Kd as a tighter complex.
